Source: patent US20250040549A1, “FUNGICIDAL COMPOSITIONS” (SYNGENTA CROP PROTECTION AG, priority 2021, published 2025)

Key:
[1] = tested on: Botrytis cinerea; test: Botrytis cinerea growth inhibition in nutrient broth, microtiter plate; type: cell-based; settings: alone, 72 hrs
Description: (§1) Botrytis cinerea (Gray Mould): Conidia of the fungus from cryogenic storage were directly mixed into nutrient broth (POE potato dextrose broth). A DMSO solution of the test compounds was placed into a microtiter plate (96-well format) and the nutrient broth containing the fungal spores was added to it. The test plates were incubated at 24 C and the inhibition of growth was determined photometrically after 72 hrs.

[2] = tested on: Phakopsora pachyrhizi (Asian soybean rust); test: Phakopsora pachyrhizi on leaf disks from sprayed soybean plants; type: in vivo; settings: alone, 11 to 14 days after inoculation; for inhibition at 1 g/ha: 1 g ai/ha
Description: Phakopsora Pachyrhizi (Soybean Rust):
Whole soybean plants are treated with the recited active ingredients 4 weeks after planting. 1 day after spraying leaf disks are cut from the first trifoliate leaf. Five repetitions at each rate are conducted. The leaf disks are inoculated with Phakopsora pachyrhizi (Asian soybean rust) one day after treatment. Evaluation of the leaf disks is conducted 11 to 14 days after inoculation and the activity is derived from the relation of the treated vs untreated, infested check. The rates of the active ingredients used are given in Table as g active ingredient (a.i.)/ha.

[3] = tested on: Sclerotinia sclerotiorum; test: Sclerotinia sclerotiorum growth inhibition in nutrient broth, microtiter plate; type: cell-based; settings: alone, 72 hrs
Description: as §1, with “Sclerotinia sclerotiorum (Cottony Rot, White Mold, Etc.): Mycelial fragments” for “Botrytis cinerea (Gray Mould): Conidia”, “fungus prepared” for “fungus”, “a fresh liquid culture” for “cryogenic storage”, “(PDB” for “(POE”, “hrs at 620 nm.” for “hrs.”

[4] = tested on: Mycosphaerella arachidis Syn. Cercospora arachidicola; test: Mycosphaerella arachidis growth inhibition in nutrient broth, microtiter plate; type: cell-based; settings: alone, 5-6 days
Description: as §1, with “Mycosphaerella arachidis Syn. Cercospora arachidicola (Brown Leaf Spot of Peanut):” for “Botrytis cinerea (Gray Mould):”, “(PDB” for “(POE”, “5-6 days at 620 nm” for “72 hrs.”

[5] = tested on: Alternaria solani; test: Alternaria solani growth inhibition in nutrient broth, microtiter plate; type: cell-based; settings: alone, 48 hrs
Description: as §1, with “Alternaria solani (Early Blight Tomato/Potato):” for “Botrytis cinerea (Gray Mould):”, “(PDB” for “(POE”, “48” for “72”

[6] = tested on: Glomerella Lagenarium Syn. Colletotrichum lagenarium; test: Glomerella lagenarium growth inhibition in nutrient broth, microtiter plate; type: cell-based; settings: alone, 72 hrs
Description: as §1, with “Glomerella Lagenarium Syn. Colletotrichum lagenarium (Anthracnose of Cucurbits):” for “Botrytis cinerea (Gray Mould):”, “(PDB” for “(POE”, “hrs at 620 nm.” for “hrs.”

[7] = tested on: Septoria tritici; test: Septoria tritici growth inhibition in nutrient broth, microtiter plate; type: cell-based; settings: alone, 72 hrs
Description: as §1, with “Septoria tritici (Leaf Blotch):” for “Botrytis cinerea (Gray Mould):”, “(PDB” for “(POE”

[8] = Phakopsora pachyrhizi, foliar, read-out: Observed Activity (%)

| SMILES | Observed Activity (%) ([1]; 0.005 g ai/ha) | inhibition at 1 g/ha [2, 8] [%] | Observed Activity (%) ([3]; 0.001 g ai/ha) | Observed Activity (%) ([3]; 0.005 g ai/ha) | Observed Activity (%) ([4]; 0.001 g ai/ha) | Observed Activity (%) ([4]; 0.005 g ai/ha) | Observed Activity (%) ([5]; 0.005 g ai/ha) | Observed Activity (%) ([6]; 0.001 g ai/ha) | Observed Activity (%) ([6]; 0.005 g ai/ha) | Observed Activity (%) ([7]; 0.001 g ai/ha) | Observed Activity (%) ([2]; 0.25 g ai/ha) | Observed Activity (%) ([2]; 0.5 g ai/ha) | also measured |
| --- | --- | --- | --- | --- | --- | --- | --- | --- | --- | --- | --- | --- | --- |
| COC(=O)NCc1cc(-c2ccn(-c3c(F)cc(C(C)C)cc3F)n2)ccc1C [Compound A-1.1, Methyl N-[[5-[1-(2,6-difluoro-4-isopropyl-phenyl)pyrazol-3-yl]-2-methyl-phenyl]methyl]carbamate] | 0 | 0 | 0 | 0 | 0 | 20 | 0 | 0 | 0 | 20 | – | – | – |
| COC(=O)NCc1cc(-c2ccn(-c3c(F)cc(C4CC4)cc3F)n2)ccc1C [Compound A-1.3, methyl N-[[5-[1-(4-cyclopropyl-2,6-difluoro-phenyl)pyrazol-3-yl]-2-methyl-phenyl]methyl]carbamate] | 0 | 2 | 0 | 0 | 0 | 50 | 20 | 0 | 0 | 50 | – | – | inhibition at 0.5 g/ha ([2]; Phakopsora pachyrhizi, foliar, 0.5 g ai/ha, read-out: Observed Activity (%)): 0%; Observed Activity (%) ([5]; 0.01 g ai/ha): 50% |
| O=C(Nc1ccccc1F)c1ccc(-c2noc(C(F)(F)F)n2)cc1 [Flufenoxadiazam, flufenoxadiazam] | – | – | – | – | – | – | – | – | – | – | 0 | 10 | Observed Activity (%) ([5]; 2.22 g ai/ha): 0%; Observed Activity (%) ([5]; 6.66 g ai/ha): 0%; Observed Activity (%) ([5]; 20 g ai/ha): 0% |
| CCC(=O)Oc1c(OC)ccnc1C(=O)N[C@@H](C)C(=O)O[C@@H](C)[C@@H](C)c1ccccc1C [Metarylpicoxamid, metarylpicoxamid] | – | – | – | – | – | – | – | – | – | – | 0 | 34 | Observed Activity (%) ([1]; 0.0246 g ai/ha): 0%; Observed Activity (%) ([1]; 0.074 g ai/ha): 20%; Observed Activity (%) ([1]; 0.22 g ai/ha): 50%; Observed Activity (%) ([3]; 2 g ai/ha): 50%; Observed Activity (%) ([4]; 0.0080 g ai/ha): 20%; Observed Activity (%) ([4]; 0.0246 g ai/ha): 50%; Observed Activity (%) ([5]; 0.074 g ai/ha): 0%; Observed Activity (%) ([5]; 0.22 g ai/ha): 20%; Observed Activity (%) ([5]; 0.66 g ai/ha): 50%; Observed Activity (%) ([6]; 0.22 g ai/ha): 0%; Observed Activity (%) ([6]; 0.66 g ai/ha): 0%; Observed Activity (%) ([6]; 2 g ai/ha): 70%; Observed Activity (%) ([7]; 0.008 g ai/ha): 20%; Observed Activity (%) ([7]; 0.0246 g ai/ha): 50%; Observed Activity (%) ([7]; 0.074 g ai/ha): 70% |
